Assay results: article PMC7698016 (Metabolites, 2020)

Target: T1, AKR1C3 (aldo-keto reductase 1C3) (Homo sapiens, UniProt P42330)
T1 construct: human recombinant enzyme expressed in E. coli (Novus NBC1-21051)
Experiment: Km by real-time NADPH fluorescence ([…]); GC-QToF gave Km […]
Type: biochemical

T1 sequence (P42330 whole entry): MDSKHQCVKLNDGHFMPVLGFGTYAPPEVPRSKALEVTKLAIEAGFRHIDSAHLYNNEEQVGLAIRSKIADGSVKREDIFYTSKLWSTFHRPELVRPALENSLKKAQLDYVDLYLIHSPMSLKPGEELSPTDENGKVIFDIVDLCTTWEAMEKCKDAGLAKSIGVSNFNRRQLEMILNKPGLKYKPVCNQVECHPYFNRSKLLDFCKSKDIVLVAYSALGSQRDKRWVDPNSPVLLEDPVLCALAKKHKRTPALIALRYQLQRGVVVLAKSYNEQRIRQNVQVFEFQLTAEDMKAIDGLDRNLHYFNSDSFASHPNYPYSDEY

C[C@]12CC[C@@H](O)C[C@H]1CC[C@@H]1[C@@H]2CC[C@]2(C)C(=O)CC[C@@H]12 [D, 3α-hydroxy-5β-androstan-17-one]
Km: 9.7 µM
